The values that follow come from patent publication US8691855B2, “Compounds, isomer thereof, or pharmaceutically acceptable salts thereof as vanilloid receptor antagonist and pharmaceutical compositions containing the same” (Amorepacific Corporation, priority 2008, dated 2014).

This assay addresses T1, vanilloid receptor (Rattus norvegicus, UniProt O35433).
T1 construct: DRG nerve cells from the primary culture of 2 days were equilibrated; endogenous in cells; host or cells: primary culture of dorsal root ganglion neurons from neonatal SD rats
Description: 45Ca influx test (antagonist calcium uptake test) in rat DRG neurons stimulated with capsaicin. In kind it is cell-based. Particulars: neonatal SD rat DRG neurons, capsaicin 0.5 μM; for IC50: 45Ca. Put shortly:
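Neonatal SD rat DRG neurons, cultured 2 days with NGF 200 ng/ml, exposed to test compound plus 0.5 μM capsaicin and 45Ca (10 μCi/ml) in HEPES-buffered Ca/Mg-free HBSS, pH 7.4, 10 min at room temperature. Influx counted by scintillation; activity as percent inhibition of the 0.5 μM capsaicin maximal response.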

T1 sequence (O35433 whole entry): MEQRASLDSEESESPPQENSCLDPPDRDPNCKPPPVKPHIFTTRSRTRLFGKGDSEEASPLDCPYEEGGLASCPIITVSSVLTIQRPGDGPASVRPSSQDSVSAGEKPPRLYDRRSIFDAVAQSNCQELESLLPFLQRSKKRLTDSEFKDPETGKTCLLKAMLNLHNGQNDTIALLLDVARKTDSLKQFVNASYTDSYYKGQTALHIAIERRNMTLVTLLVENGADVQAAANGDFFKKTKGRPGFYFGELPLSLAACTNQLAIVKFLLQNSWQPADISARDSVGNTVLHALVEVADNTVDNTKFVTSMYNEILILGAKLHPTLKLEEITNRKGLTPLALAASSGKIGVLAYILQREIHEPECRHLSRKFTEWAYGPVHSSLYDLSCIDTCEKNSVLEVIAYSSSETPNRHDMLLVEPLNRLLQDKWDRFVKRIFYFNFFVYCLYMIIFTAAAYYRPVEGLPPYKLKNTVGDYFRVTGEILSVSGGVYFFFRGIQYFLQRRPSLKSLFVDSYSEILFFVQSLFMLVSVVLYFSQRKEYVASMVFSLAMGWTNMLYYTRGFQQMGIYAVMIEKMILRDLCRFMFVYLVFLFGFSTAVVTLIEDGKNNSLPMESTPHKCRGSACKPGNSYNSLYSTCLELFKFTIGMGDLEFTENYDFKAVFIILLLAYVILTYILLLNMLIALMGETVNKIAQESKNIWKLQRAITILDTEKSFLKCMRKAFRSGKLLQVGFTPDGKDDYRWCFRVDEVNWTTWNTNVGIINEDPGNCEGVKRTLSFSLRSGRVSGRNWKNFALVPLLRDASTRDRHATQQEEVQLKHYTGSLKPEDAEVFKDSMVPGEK

In general, IC50 refers to the concentration that gives 50% inhibition. For `CCCCOc1ccccc1-c1nc(C(=O)N[C@H](C)c2cc(F)c(NS(C)(=O)=O)c(F)c2)co1` [Example 66, 2-(2-Butoxy-phenyl)-oxazole-4-carboxylic acid [1-(3,5-difluoro-4-methanesulfonylamino-phenyl)-ethyl]-amide], the IC50 turned out to be 750 nM.
For the molecule `CCc1cc(-c2ccc(C(=O)N[C@H](C)c3cc(F)c(NS(C)(=O)=O)c(F)c3)o2)cc(C(F)(F)F)c1` [Example 116, 5-(3-Ethyl-5-trifluoromethyl-phenyl)-furan-2-carboxylic acid [1-(3,5-difluoro-4-methanesulfonylamino-phenyl)-ethyl]-amide], the IC50 came to 160 nM.
A word on the inhibition: it is how much of the control response was suppressed. With `C[C@@H](NC(=O)c1coc(-c2ccc(C(F)(F)F)cc2)n1)c1cc(F)c(NS(C)(=O)=O)c(F)c1` [Example 74, 2-(4-Trifluoromethyl-phenyl)-oxazole-4-carboxylic acid [1-(3,5-difluoro-4-methanesulfonylamino-phenyl)-ethyl]-amide], the inhibition at 3 µM (DRG neuron, @3 μM, read-out: Antagonist Calcium Uptake Test, percent inhibition of capsaicin response) was 89%.
As for `C[C@@H](NC(=O)c1cnc(-c2cc(C(F)(F)F)cc(C(F)(F)F)c2)s1)c1cc(F)c(NS(C)(=O)=O)c(F)c1` [Example 126, 2-(3,5-Bis-trifluoromethyl-phenyl)-thiazole-5-carboxylic acid [1-(3,5-difluoro-4-methanesulfonylamino-phenyl)-ethyl]-amide], the IC50 was found to be 490 nM.
Regarding `COc1cc(-c2nc(C(=O)N[C@H](C)c3cc(F)c(NS(C)(=O)=O)c(F)c3)co2)cc(C(F)(F)F)c1` [Example 97, 2-(3-Methoxy-5-trifluoromethyl-phenyl)-oxazole-4-carboxylic acid [1-(3,5-difluoro-4-methanesulfonylamino-phenyl)-ethyl]-amide], the IC50 was determined as 1400 nM.
As to `Cc1ccc(C2CCCCC2)c(Oc2nc(C(=O)N[C@H](C)c3cc(F)c(NS(C)(=O)=O)c(F)c3)co2)c1` [Example 50, 2-(2-Cyclohexyl-5-methyl-phenoxy)-oxazole-4-carboxylic acid [1-(3,5-difluoro-4-methanesulfonylamino-phenyl)-ethyl]-amide], the concentration for half-maximal inhibition (IC50) is 1100 nM.
Same read-out and setting: under `CC(C)c1cccc(Oc2ccc(C(=O)N[C@H](C)c3cc(F)c(NS(C)(=O)=O)c(F)c3)o2)c1` [Example 59, 5-(3-Isopropyl-phenoxy)-furan-2-carboxylic acid [1-(3,5-difluoro-4-methanesulfonylamino-phenyl)-ethyl]-amide] stands 1000 nM.
On the same count and under the same terms, the result for `Cc1cc(CNC(=O)c2ccc(-c3cccc(C(F)(F)F)c3)o2)ccc1NS(C)(=O)=O` [Example 112, 5-(3-Trifluoromethyl-phenyl)-furan-2-carboxylic acid 4-methanesulfonylamino-3-methyl-benzylamide] reads 220 nM; that for `C=C(C)c1cc(Oc2nc(C(=O)N[C@H](C)c3cc(F)c(NS(C)(=O)=O)c(F)c3)co2)cc(C(F)(F)F)c1` [Example 43, 2-(3-Isopropenyl-5-trifluoromethyl-phenoxy)-oxazole-4-carboxylic acid [1-(3,5-difluoro-4-methanesulfonylamino-phenyl)-ethyl]-amide], 960 nM; that for `C[C@@H](NC(=O)c1coc(Oc2ccc(C(F)(F)F)cc2)n1)c1cc(F)c(NS(C)(=O)=O)c(F)c1` [Example 6, 2-(4-Trifluoromethyl-phenoxy)-oxazole-4-carboxylic acid [1-(3,5-difluoro-4-methanesulfonylamino-phenyl)-ethyl]-amide], 5000 nM.
Still for that read-out and setting: the result for `C[C@@H](NC(=O)c1coc(Oc2cccc([N+](=O)[O-])c2)n1)c1cc(F)c(NS(C)(=O)=O)c(F)c1` [Example 18, 2-(3-Nitro-phenoxy)-oxazole-4-carboxylic acid [1-(3,5-difluoro-4-methanesulfonylamino-phenyl)-ethyl]-amide] reads 2900 nM; that for `C[C@H](NC(=O)c1ccc(-c2cccc(C(F)(F)F)c2)o1)c1cc(F)c(NS(C)(=O)=O)c(F)c1` [Example 109, (S)-5-(3-Trifluoromethyl-phenyl)-furan-2-carboxylic acid [1-(3,5-difluoro-4-methanesulfonylamino-phenyl)-ethyl]-amide], 270 nM.
